Laboratory results: patent publication US8604053B2, “TRPV1 antagonists” (AbbVie Inc., priority 2008, dated 2013)

Tests used:
Format in all cases: in vitro ADME
CYP2C9 = biological target: T1, CYP2C9 (Homo sapiens, UniProt P11712); assay: CYP2C9 inhibition assay; conditions: human liver microsomes, substrate Luciferin-H
T1 construct: human liver microsomes (BD Gentest); tissue BD Gentest; host or cells: human liver microsomes
Procedure, shortened: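 Human liver microsomes (0.4 mg/mL) with NADPH-regenerating system in pH 7.4 phosphate, preincubated with compound 10 min at 37 °C. Luciferin-H (100 μM final) then added for 25 min at 37 °C, 1% DMSO. Luminescence read after Luciferin-H detection reagent; run in duplicate.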

CYP2D6 = biological target: T2, CYP2D6 (Homo sapiens, UniProt P10635); assay: in vitro; conditions: microsomes, 2.2 µM
T2 construct: human liver microsomes (BD Gentest); tissue BD Gentest; host or cells: human liver microsomes
T2 sequence (P10635 whole entry): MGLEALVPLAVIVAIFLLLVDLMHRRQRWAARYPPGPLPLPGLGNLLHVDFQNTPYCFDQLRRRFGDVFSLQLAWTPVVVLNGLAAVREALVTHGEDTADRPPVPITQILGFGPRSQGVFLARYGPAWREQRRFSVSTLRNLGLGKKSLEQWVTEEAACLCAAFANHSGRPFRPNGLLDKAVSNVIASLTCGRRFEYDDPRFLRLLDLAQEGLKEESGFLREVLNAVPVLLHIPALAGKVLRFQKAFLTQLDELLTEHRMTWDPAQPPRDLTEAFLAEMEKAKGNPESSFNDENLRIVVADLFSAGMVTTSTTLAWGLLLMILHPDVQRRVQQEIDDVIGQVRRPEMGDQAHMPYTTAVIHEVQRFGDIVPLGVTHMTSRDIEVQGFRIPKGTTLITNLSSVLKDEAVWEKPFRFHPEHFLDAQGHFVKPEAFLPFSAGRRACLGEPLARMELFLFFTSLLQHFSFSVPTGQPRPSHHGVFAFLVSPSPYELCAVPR
Method: Stock solutions of test compounds were assayed in 96-well format for their ability to inhibit CYP2C9, CYP2D6, or CYP3A4 mediated metabolism of test substrates. Luciferin-H was used as the substrate for CYP2C9; 3-[2-(N,N-diethyl-N-methylammonium)ethyl]-7-methoxy-4-methylcoumarin (AMMC) was used as the substrate for CYP2D6; 7-benzyloxyquiniline (BZQ) was used as the substrate for CYP3A4. For each subtype, positive controls (sulphaphenazole in the case of CYP2C9; quinidine in the case of CYP2D6, ketoconazole in the case of CYP3A4) were used to validate assay results run in duplicate.
Pre-Incubation Mixture Preparation for CYP2C9 and CYP2D6: A pre-incubation mixture was prepared by combining 100 mM phosphate buffer (9.12 mL; pH 7.4), human liver microsomes (BD Gentest, 240 itt; final concentration: 0.4 mg/mL), and 10 mM nicotinamide adenine dinucleotide phosphate in 65.4 mM MgCl2 hexahydrate (120 μL; final concentration: 125 μM and 818 μM, respectively). To this was mixture is added a ‘regeneration’ mixture (120 μL) of 333 mM glucose-6-phosphate and 40 U/mL glucose-6-phosphate dehydrogenase in 5 mM sodium citrate (final concentration: 4 mM, 0.5 U/mL, and 0.06 mM, respectively).
Substrate Mixture Preparation for CYP2D6: To a solution of 100 mM phosphate buffer, (2.80 mL, pH 7.4) was added 10 mM AMMC in acetonitrile (14 itt; final solution concentration 0.05 mM, final assay concentration 10 μM).
(§1) CYP2D6 Inhibiton Assay: To each well in the assay plate containing varying concentrations of test compound or control compound in DMSO (10 μL), Pre-Incubation Mixture (40 μL) was added to the wells and the assay plate was pre-incubated for 10 minutes at 37° C., with shaking or rocking. A pre-read of each well was performed at 390 nm and 460 nm extinction/emission. CYP2D6 Substrate Mixture (10 μL) was added to all wells and the assay plate was incubated for an additional […] at 37° C., with shaking or rocking. Final DMSO concentration was 1%. A post-read of each well was then performed at 390 nm and 460 nm extinction/emission.

CYP3A4 = biological target: T3, CYP3A4 (Homo sapiens, UniProt P08684); assay: CYP3A4 inhibition assay; conditions: human liver microsomes, substrate BZQ
T3 construct: human liver microsomes (BD Gentest, 450 μL; final concentration: 0.4 mg/mL); tissue BD Gentest; host or cells: human liver microsomes
T3 sequence (P08684 whole entry): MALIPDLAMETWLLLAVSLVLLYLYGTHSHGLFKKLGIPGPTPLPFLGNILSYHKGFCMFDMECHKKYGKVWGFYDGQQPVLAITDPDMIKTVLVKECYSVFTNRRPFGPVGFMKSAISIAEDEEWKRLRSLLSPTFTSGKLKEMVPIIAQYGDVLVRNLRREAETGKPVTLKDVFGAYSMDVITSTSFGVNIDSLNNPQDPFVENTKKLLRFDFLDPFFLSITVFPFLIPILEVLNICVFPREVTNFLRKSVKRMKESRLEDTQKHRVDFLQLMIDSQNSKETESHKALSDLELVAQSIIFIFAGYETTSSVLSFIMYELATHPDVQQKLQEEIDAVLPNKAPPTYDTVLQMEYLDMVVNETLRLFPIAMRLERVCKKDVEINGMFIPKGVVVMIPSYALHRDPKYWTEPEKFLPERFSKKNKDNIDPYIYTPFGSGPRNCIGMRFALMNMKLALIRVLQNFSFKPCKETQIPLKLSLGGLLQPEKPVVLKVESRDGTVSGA
Method: Luciferin-H was used as the substrate for CYP2C9; 3-[2-(N,N-diethyl-N-methylammonium)ethyl]-7-methoxy-4-methylcoumarin (AMMC) was used as the substrate for CYP2D6; 7-benzyloxyquiniline (BZQ) was used as the substrate for CYP3A4.
Pre-Incubation Mixture Preparation for CYP3A4: A pre-incubation mixture was prepared by combining 100 mM phosphate buffer (19.35 mL; pH 7.4), human liver microsomes (BD Gentest, 450 μL; final concentration: 0.4 mg/mL), and 10 mM nicotinamide adenine dinucleotide phosphate in 65.4 mM MgCl2 hexahydrate (225 μL; final concentration: 100 μM and 654 μM, respectively). To this was mixture was added a ‘regeneration’ mixture (225 μL) of 333 mM glucose-6-phosphate and 40 U/mL glucose-6-phosphate dehydrogenase in 5 mM sodium citrate (final concentration: 3.3 mM, 0.4 U/mL, and 0.05 mM, respectively).
Substrate Mixture Preparation for CYP3A4: To a solution of 100 mM phosphate buffer, (2.36 mL, pH 7.4) was added 30 mM BZQ in acetonitrile (40 μL; final solution concentration 0.5 mM, final assay concentration 50 μM).
as §1, with “CYP3A4” for “CYP2D6”, “μL), CYP3A4” for “μL),”, “(90” for “(40”, “405” for “390”, “535” for “460”

T1 sequence (P11712 whole entry): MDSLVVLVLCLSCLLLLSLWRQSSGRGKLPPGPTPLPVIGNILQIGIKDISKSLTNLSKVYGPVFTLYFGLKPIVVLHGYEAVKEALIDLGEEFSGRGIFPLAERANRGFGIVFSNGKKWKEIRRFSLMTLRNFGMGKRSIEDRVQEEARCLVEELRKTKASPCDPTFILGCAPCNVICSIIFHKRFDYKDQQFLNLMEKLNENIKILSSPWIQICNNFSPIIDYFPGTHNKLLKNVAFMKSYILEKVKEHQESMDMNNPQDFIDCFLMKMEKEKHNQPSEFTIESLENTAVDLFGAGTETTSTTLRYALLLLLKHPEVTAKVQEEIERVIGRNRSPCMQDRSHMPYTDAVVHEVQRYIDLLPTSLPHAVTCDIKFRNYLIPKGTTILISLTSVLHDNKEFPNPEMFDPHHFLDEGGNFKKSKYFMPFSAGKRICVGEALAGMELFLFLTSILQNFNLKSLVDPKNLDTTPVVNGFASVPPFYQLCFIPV

Substance	CYP2C9 % inh @ 2.2 μM (CYP2C9)	CYP2D6 % inh @ 2.2 μM) (CYP2D6)	CYP3A4 % inh @ 2.2 μM (CYP3A4)
N-[(4R)-6,8-difluoro-2,2-dimethyl-3,4-dihydro-2H-chromen-4-yl]-N-(3-methylisoquinolin-5-yl)urea [Example 98]	8.4%	3.7%	0%
N-[(4R)-6,8-difluoro-2,2-dimethyl-3,4-dihydro-2H-chromen-4-yl]-N′-isoquinolin-5-ylurea [Example 17]	50%	100%	63%
N-[(4R)-7-fluoro-2,2,8-trimethyl-3,4-dihydro-2H-chromen-4-yl]-N-(3-methylisoquinolin-5-yl)urea [Example 111]	0.36%	0.87%	0%
